From article PMC10949639, “Engineering Escherichia coli for high-yielding 2,5-Dimethylpyrazine synthesis from L-Threonine by reconstructing metabolic pathways and enhancing cofactors regeneration” (Biotechnology for Biofuels and Bioproducts, 2024)

What was measured:
[1] = target: T1, EhNOX (NADH oxidase) (Enterococcus hirae, UniProt I6S3N3); test: NADH consumption, lysate supernatant; assay type: biochemical; settings: 200 μM NADH, 10 μM FAD, 1 mM dithiothreitol, 20 mM citrate-sodium citrate pH 5.6
T1 construct: gene EHR_12315; recombinant from pACYCDuet-1-Ectdh-Ehnox (Nde I/Xho I) in E. coli BL21(DE3), co-expressed with EcTDH; crude lysate supernatant; gene about 1400 bp
T1 sequence (I6S3N3 1-450): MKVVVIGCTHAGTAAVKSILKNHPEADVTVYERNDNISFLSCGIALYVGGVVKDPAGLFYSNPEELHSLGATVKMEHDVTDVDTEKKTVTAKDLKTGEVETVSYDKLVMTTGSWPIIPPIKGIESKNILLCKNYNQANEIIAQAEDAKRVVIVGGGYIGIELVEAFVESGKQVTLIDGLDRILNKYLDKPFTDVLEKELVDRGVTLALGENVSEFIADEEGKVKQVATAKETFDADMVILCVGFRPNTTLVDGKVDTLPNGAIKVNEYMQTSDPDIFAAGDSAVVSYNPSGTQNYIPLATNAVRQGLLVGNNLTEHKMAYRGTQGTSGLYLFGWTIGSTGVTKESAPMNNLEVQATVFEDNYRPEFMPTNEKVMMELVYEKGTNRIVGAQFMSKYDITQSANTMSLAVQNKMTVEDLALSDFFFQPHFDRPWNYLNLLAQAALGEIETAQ

[2] = target: T2, EcTDH (L-threonine dehydrogenase) (Escherichia coli, UniProt P07913); test: NADH formation at […] nm, lysate supernatant; assay type: biochemical; settings: 100 mM Tris-HCl pH 9.0, 100 mM L-threonine, 50 mM NAD+, 30 °C
T2 construct: gene tdh; recombinant from pACYCDuet-1 (BamH I/Hind III) in E. coli BL21(DE3); crude lysate supernatant; gene about 1100 bp
T2 sequence (P07913 1-341): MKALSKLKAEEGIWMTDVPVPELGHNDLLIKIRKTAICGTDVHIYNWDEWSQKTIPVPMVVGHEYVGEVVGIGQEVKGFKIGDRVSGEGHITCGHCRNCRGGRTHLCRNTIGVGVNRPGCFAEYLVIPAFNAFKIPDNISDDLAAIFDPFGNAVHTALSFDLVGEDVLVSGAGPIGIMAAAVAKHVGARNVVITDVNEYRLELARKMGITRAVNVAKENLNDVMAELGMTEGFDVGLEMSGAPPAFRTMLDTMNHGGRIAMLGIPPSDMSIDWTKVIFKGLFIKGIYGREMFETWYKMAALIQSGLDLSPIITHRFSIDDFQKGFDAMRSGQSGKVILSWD

Compound | NADH consumption, lysate supernatant [1] | NADH formation at 340 nm, lysate supernatant [2]
NC(=O)C1=CN([C@@H]2O[C@H](COP(=O)(O)OP(=O)(O)OC[C@H]3O[C@@H](n4cnc5c(N)ncnc54)[C@H](O)[C@@H]3O)[C@@H](O)[C@H]2O)C=CC1 [NADH] | The enzyme activity of EhNOX was determined using NADH as substrate | 
C[C@@H](O)[C@H](N)C(=O)O [L-threonine] |  | The enzyme activity of EcTDH was determined using L-threonine as the substrate
